From patent US5135931A, “Pyridinylpiperazine derivatives” (Akzo N.V., priority 1990, dated 1992) come the findings set out here.

The target of experiment [1] is 5-HT1B (serotonin 1B) receptor (Rattus norvegicus, UniProt P28564). Put plainly: serotonin binding activity, 5-HT1B. As to conditions: average test results; read-out: pKi 5-HT1B (converted). As to the method:
(§1) The various compounds of Examples I-VIII were analyzed for serotonin binding activity.

The target in experiment [2] is T1, 5-HT1A (serotonin 1A) receptors (Homo sapiens, UniProt P08908).
T1 sequence (P08908 1-422): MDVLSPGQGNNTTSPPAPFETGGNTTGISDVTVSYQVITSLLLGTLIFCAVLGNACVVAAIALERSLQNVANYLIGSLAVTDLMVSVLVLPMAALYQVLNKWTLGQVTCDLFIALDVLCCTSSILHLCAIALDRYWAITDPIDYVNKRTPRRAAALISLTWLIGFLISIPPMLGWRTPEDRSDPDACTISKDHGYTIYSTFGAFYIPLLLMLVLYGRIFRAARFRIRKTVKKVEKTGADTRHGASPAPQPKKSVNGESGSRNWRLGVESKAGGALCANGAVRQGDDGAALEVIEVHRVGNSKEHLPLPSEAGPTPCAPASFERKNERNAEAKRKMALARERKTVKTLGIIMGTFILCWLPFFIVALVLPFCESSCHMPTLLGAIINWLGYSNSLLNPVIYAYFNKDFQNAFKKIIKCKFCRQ
Put plainly: serotonin binding activity, 5-HT1A. As to conditions: average test results; read-out: pKi 5-HT1A (converted). Here is the method:
as §1

Structures can show the parent of a compound that is named as a salt.

5-HT1B (serotonin 1B) receptor, sequence (P28564 whole entry): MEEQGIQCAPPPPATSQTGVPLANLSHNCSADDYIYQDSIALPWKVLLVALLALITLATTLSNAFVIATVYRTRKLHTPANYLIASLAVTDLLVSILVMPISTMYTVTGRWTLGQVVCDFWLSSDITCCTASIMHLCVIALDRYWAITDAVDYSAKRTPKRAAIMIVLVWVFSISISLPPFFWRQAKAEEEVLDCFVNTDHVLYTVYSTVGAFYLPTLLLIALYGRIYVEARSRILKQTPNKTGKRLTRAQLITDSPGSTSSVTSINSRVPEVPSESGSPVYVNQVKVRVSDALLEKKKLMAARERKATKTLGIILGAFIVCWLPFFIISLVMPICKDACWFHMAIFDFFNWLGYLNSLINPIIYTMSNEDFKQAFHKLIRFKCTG

With `O=C(NCCN1CCN(c2cccc(C(F)(F)F)n2)CC1)c1ccc(F)cc1` [Example I, 4-fluoro-N-[2-[4-[6-(trifluoromethyl)-2-pyridinyl]-1-piperazinyl]ethyl]benzamide (E)-2-butenedioate (1:1) salt], the Ki in experiment [1] is over 10000 nM; in experiment [2], 1.58 nM.
In the case of `O=C(NCCCCN1CCN(c2cccc(C(F)(F)F)n2)CC1)c1ccc(F)cc1` [Example IV, 4-fluoro-N-[4-[4-[6-(trifluoromethyl) -2-pyridinyl]-1-piperazinyl]butyl]benzamide (E)-2-butenedioate (2:1) salt], the Ki was 501 nM in experiment [1] and 7.94 nM in experiment [2].
Taken in the same sequence, the figures for `O=C(NCCN1CCN(c2cccc(C(F)(F)F)n2)CC1)c1ccccc1` [II, N-[2-[4-[6-(trifluoromethyl)-2-pyridinyl]-1-piperazinyl]ethyl]benzamide (E)-2-butenedioate (1:1) salt] were 10000 nM and 1 nM.
Consider `O=C(NCCN1CCN(c2cc(C(F)(F)F)ccn2)CC1)c1ccc(F)cc1` [III, 4-fluoro-N-[2-[4-[4-(trifluoromethyl) -2-pyridinyl]-1-piperazinyl]ethyl]benzamide (E)-2-butenedioate (1:1) salt], for which the Ki in experiment [1] is 10000 nM; in experiment [2], 20 nM.
Taken in the same sequence, the figures for `O=C(NCCCCN1CCN(c2cccc(C(F)(F)F)n2)CC1)c1ccccc1` [V, N-[4-[4-[6-(trifluoromethyl)-2-pyridinyl]-1-piperazinyl]butyl]benzamide (E)-2-butenedioate (2:1) salt] were 1000 nM and 6.31 nM.
In the same order, the values of `CN(CCN1CCN(c2cccc(C(F)(F)F)n2)CC1)C(=O)c1ccc(F)cc1` [VII, 4-fluoro-N-[2-[4-(6-(trifluoromethyl)-2-pyridinyl)-1-piperazinyl]ethyl]-N-methylbenzamide] are over 10000 nM and 31.6 nM.
In the same order, the values of `CN(CCCN1CCN(c2cccc(C(F)(F)F)n2)CC1)C(=O)c1ccc(F)cc1` [VIII, 4-fluoro-N-[3-[4-(6-(trifluoromethyl)-2-pyridinyl)-1-piperazinyl]propyl]-N-methylbenzamide] are over 10000 nM and 63.1 nM.
As to `O=C(NCCN1CCN(c2cccc(C(F)(F)F)n2)CC1)c1cccnc1` [VI], the Ki is 5010 nM in experiment [1] and 50.1 nM in experiment [2].
